Experiments:
[1] = test system: tumor-associated macrophage; experiment: Fraction of tumor-associated macrophage in TIL, MC38 colon cancer cell transplant model (flow cytometry); type: in vivo, mouse
Method: MC38, a mouse colon cancer cell line, was provided by Dr. Yoshihiro Hayakawa (University of Toyama, Toyama, Japan). MC38 was cultured in RPMI 1640 medium containing 10% FBS. MC38 was subcultured in a 37° C., 5% CO2 incubator in a 1:3 to 1:5 ratio, one to two times a week.
A cell suspension of MC38 cells containing 2×10^6 cells/0.1 mL, was transplanted subcutaneously into a C57BL/6NJJcl mouse (CLEA Japan, Inc.), six weeks of age, in an area around the right last rib.
The tumor size was measured by measuring the major axis and minor axis of the tumor with a digimatic caliper, and TV was calculated using the following formula. TV (mm^3)=major axis (mm)×minor axis (mm)×minor axis (mm)/2 […]
The tumor was collected on the 10th day (Day 10) since administration was started, and a tumor suspension was prepared using a digestive enzyme treatment method. […] The isolated TILs were reacted with fluorescence-labeled anti-CD45 antibody, anti-CD90.2 (T cell marker) antibody, anti-CD11b (myeloid leukocyte marker) antibody, anti-Ly-6G (granulocytic bone marrow-derived suppressor cell marker) antibody, anti-Ly-6C (monocytic bone marrow-derived suppressor cell marker) antibody, and anti-F4/80 (macrophage marker) antibody, and the fraction of tumor-associated macrophage in TIL was calculated by fluorescence flow cytometry. […]

[2] = Percentage of body weight change in MC38 colon cancer cell transplant model; type: in vivo, mouse
Method: (§1) An electronic balance designed for animals was used for body weight measurement. A percentage of body weight change (BWCn) on day n was calculated from the body weight on day 1 (BW1) and the body weight (BWn) on day n using the following formula. Percentage of body weight change BWCn (%)=(BWn−BW1)/BW1×100
(§2) A methanesulfonic acid salt of compound 1 was pulverized with an agate mortar, and was prepared into a solution having a concentration of 5 mg/mL as its free form, using a solvent. The compound was then dissolved by sonication to prepare a 50 mg/kg dosing solution. The dosing solution was diluted with solvent to prepare a 25 mg/kg dosing solution, and a 12.5 mg/kg dosing solution. These dosing solutions were orally administered as compound 1, once daily in a dose of 12.5 mg/kg/day, 25 mg/kg/day, or 50 mg/kg/day, continuously for 21 days.
(§3) The anti-mouse PD-1 antibody was intraperitoneally administered in a dose of 0.05 mg/body on the first day (Day 1) of administration and on the 8th day since administration was started.
(§4) The medicinal agents shown in Table 1 were administered in the schedules, doses, and dosage forms shown in Table 1 (administered group No. 1 to No. 8).

[3] = test system: mouse breast cancer cell line EMT6; experiment: Antitumor effect (tumor volume) in EMT6 breast cancer cell transplant model; type: in vivo
Method: EMT6, a mouse breast cancer cell line, was obtained from American Type Culture Collection (ATCC). EMT6 was cultured in Waymouth's MB752/1 medium containing […]. EMT6 was subcultured in a 37° C., 5% CO2 incubator in a 1:3 to 1:5 ratio, one to two times a week.
(§5) A cell suspension as a suspension of EMT6 cells in a 1:1 mixture of PBS and extracellular matrix component Matrigel was prepared, and the suspension, containing 1×10^4 cells/0.1 mL, was transplanted subcutaneously into a BALB/c mouse (Charles River Laboratories Japan Inc.), six weeks of age, in an area around the right last rib.
(§6) The tumor size was measured by measuring the major axis and minor axis of the tumor with a digimatic caliper, and TV was calculated using the following formula. TV (mm^3)=major axis (mm)×minor axis (mm)×minor axis (mm)/2
The animals were divided into groups of 15 using a stratified random grouping method, using TV as an index. The day the grouping was made (N=15) was designated as Day 1.
A methanesulfonic acid salt of compound 1 was pulverized with an agate mortar, and was prepared into a solution having a concentration of 4.2 mg/mL as its free form, using a solvent. The compound was then dissolved by sonication to prepare a 42 mg/kg dosing solution. The dosing solution was orally administered as compound 1, once daily in a dose of 42 mg/kg/day, continuously for 14 days. […]

[4] = Percentage of body weight change in EMT6 breast cancer cell transplant model; type: in vivo, mouse; conditions: Compound 1 42 mg/kg p.o. q.d. Day 1-14 / PBS i.p.
Method: as §1
An electronic balance designed for animals was used for body weight measurement. A percentage of body weight change (BWCn) on day n was calculated in the same manner as in Example 1.
A methanesulfonic acid salt of compound 1 was pulverized with an agate mortar, and was prepared into a solution having a concentration of 4.2 mg/mL as its free form, using a solvent. The compound was then dissolved by sonication to prepare a 42 mg/kg dosing solution. The dosing solution was orally administered as compound 1, once daily in a dose of 42 mg/kg/day, continuously for 14 days.
The anti-mouse PD-1 antibody was intraperitoneally administered in a dose of 0.1 mg/body on the first day (Day 1) of administration, and on the 4th day (Day 4), the 8th day (Day 8), and the 11th day (Day 11) since administration was started.
The anti-mouse CTLA-4 antibody was intraperitoneally administered in a dose of 0.5 mg/body on the first day (Day 1) of administration, and after 4 days (Day 4), 8 days (Day 8), and 11 days (Day 11) from administration. […]

[5] = test system: tumor-associated macrophage; experiment: Fraction of tumor-associated macrophage in TIL, EMT6 breast cancer cell transplant model (flow cytometry); type: in vivo, mouse
Method: EMT6, a mouse breast cancer cell line, was obtained from ATCC. EMT6 was cultured in Waymouth's MB752/1 medium containing 15% FBS. EMT6 was subcultured in a 37° C., 5% CO2 incubator in a 1:3 to 1:5 ratio, one to two times a week.
as §5
After 4 days from transplantation, the animals were divided into groups of 5 using a stratified random grouping method, using body weight as an index. The day the grouping was made (N=5) was designated as Day 1.
A methanesulfonic acid salt of compound 1 was pulverized with an agate mortar, and was prepared into a solution having a concentration of 4.2 mg/mL as its free form, using a solvent. […]
The tumor was collected on the 7th day (Day 7) since administration was started, and a tumor suspension was prepared using a digestive enzyme treatment method. […] The isolated TILs were reacted with fluorescence-labeled anti-CD45 antibody, anti-CD90.2 antibody, anti-CD11b antibody, anti-Ly-6G antibody, anti-Ly-6C antibody, and anti-F4/80 antibody, and the fraction of tumor-associated macrophage in TIL was calculated by fluorescence flow cytometry. […]

[6] = test system: mouse colon cancer cell line MC38; experiment: Antitumor effect (tumor volume) in MC38 colon cancer cell transplant model; type: in vivo; conditions: for TV, DAY 22 MEAN ± S.E.: N=10
Method: MC38, a mouse colon cancer cell line, was provided by Dr. Yoshihiro Hayakawa (University of Toyama, Toyama, Japan). MC38 was cultured in RPMI 1640 medium containing 10% fetal bovine serum (FBS). MC38 was subcultured in a 37° C., 5% CO2 incubator in a 1:3 to 1:5 ratio, one to two times a week.
as §5, with “MC38” for “EMT6”, “phosphate-buffered saline (PBS)” for “PBS”, “1×10^6” for “1×10^4”, “C57BL/6NCrl” for “BALB/c”
as §6
The animals were divided into groups of 10 using a stratified random grouping method, using TV as an index. The day the grouping was made (N=10) was designated as Day 1.
as §2, §3, §4
A Dunnett's test (significance level 0.05) was conducted to analyze Day 22 TV for each group.

mouse MC38 tumor model = experiment: Dose finding of compound 1 in mouse MC38 tumor model; type: in vivo; conditions: orally administered once daily for 21 days
Method: An experiment was conducted with mouse MC38 tumor model. Tumor cells were cultured in vitro and transplanted subcutaneously into male mice, six weeks of age, in the right chest region, followed by daily administration of compound 1 and a control antibody. […] This dose (oral continuous administration of 50 mg/kg for 21 days, q.d.) is equivalent to the recommended dose of compound 1 in humans when administered alone.

CNC(=O)c1cc2c(Oc3ccc(NC(=S)NC(=O)Cc4ccccc4)cc3F)ccnc2cc1OC [Compound 1, 4-(2-fluoro-4-(3-(2-phenylacetyl)thioureido)phenoxy)-7-methoxy-N-methylquinoline-6-carboxamide]
Fraction of tumor-associated macrophage MEAN ± S.E. ([1]; Compound 1 25 mg/kg p.o. q.d. Day 1-9, tumor collected Day 10, N=5): 8.2 ± 2.3%
fraction of tumor-associated macrophage versus control group (No. 1), result in words ([1]; Dunnett's test, significance level 0.05, doses as in Table 2): significantly smaller fractions of tumor-associated macrophage than control group
BWC22 MEAN ± S.E. ([2]; Compound 1 12.5 mg/kg p.o. q.d. Day 1-21 / PBS i.p.): 6.1 ± 0.7%
BWC22 MEAN ± S.E. ([2]; Compound 1 25 mg/kg p.o. q.d. Day 1-21 / PBS i.p.): 5.0 ± 0.9%
BWC22 MEAN ± S.E. ([2]; Compound 1 50 mg/kg p.o. q.d. Day 1-21 / PBS i.p.): −0.3 ± 0.9%
TV, DAY 15 MEAN ± S.E. ([3]; Compound 1 42 mg/kg p.o. q.d. Day 1-14 / PBS i.p. Day 1, 4, 8, 11, N=15): 312 ± 29 mm^3
Day 15 TV versus control group (No. 1), result in words ([3]; Dunnett's test, significance level 0.05, doses as in Table 3): significantly smaller TVs than control group
BWC15 MEAN ± S.E. [4]: 3.2 ± 1.0%
Fraction of tumor-associated macrophage MEAN ± S.E. ([5]; Compound 1 42 mg/kg p.o. q.d. Day 1-6, tumor collected Day 7, N=5): 20.3 ± 4.8%
fraction of tumor-associated macrophage versus control group (No. 1), result in words ([5]; Dunnett's test, significance level 0.05, doses as in Table 4): significantly smaller fraction of tumor-associated macrophage than control group
TV, DAY 22 MEAN ± S.E. ([6]; Compound 1 12.5 mg/kg p.o. q.d. Day 1-21 / PBS i.p. Day 1, 8): 1007 ± 161 mm^3
TV, DAY 22 MEAN ± S.E. ([6]; Compound 1 25 mg/kg p.o. q.d. Day 1-21 / PBS i.p. Day 1, 8): 763 ± 50 mm^3
TV, DAY 22 MEAN ± S.E. ([6]; Compound 1 50 mg/kg p.o. q.d. Day 1-21 / PBS i.p. Day 1, 8): 437 ± 62 mm^3
Day 22 TV versus control group (No. 1), result in words ([6]; Dunnett's test, significance level 0.05, doses as in Table 1): significantly smaller TVs than control group
preferred minimum dose that produces the maximum efficacy in the mouse (mouse MC38 tumor model): 50 mg/kg

From patent US12280045B2, “Antitumor agent and antitumor effect potentiator” (TAIHO PHARMACEUTICAL CO., LTD., priority 2017, dated 2025)
